The test has as its target T1, SARS2 protease (Severe acute respiratory syndrome coronavirus 2, UniProt P0DTD1).
T1 construct: SARS2 protease was added to a final concentration of 30 nM
The test can be described thus: SARS-CoV-2 protease inhibition assay (SARS2 FRET protease assay). Conditions: IC50 (μM), SARS2 protease 30 nM, peptide substrate 1.3 μM, 120 minutes at 37° C., compounds 20 μM to 0.075 nM. The format is biochemical.

By IC50 is commonly meant the concentration that inhibits the measured activity by half. Lower therefore signals greater potency in that assay.

In turn, `CCNC(=O)C(=O)[C@H](C[C@H]1CCNC1=O)NC(=O)[C@H](CC1CCCCC1)NC(=O)OC(c1ccccc1)C(F)(F)c1cccc(Cl)c1` (stereo partly drawn) [Compound A207] returned an IC50 of 0.764 µM. For `CCC[C@H](NC(=O)O[C@H](c1ccccc1)C(F)(F)c1cccc(Cl)c1)C(=O)N[C@H](C=O)C[C@@H]1CCNC1=O` [Compound A208] the value was 0.004 µM. On to `CCC(=O)OC([C@H](C[C@@H]1CCNC1=O)NC(=O)[C@H](CC1CCCCC1)NC(=O)O[C@@H](c1ccccc1)C(F)(F)c1cccc(Cl)c1)S(=O)(=O)O` (stereo partly drawn) [Compound A211], for which half-maximal inhibition (IC50) was put at 0.504 µM. On to `CCC(=O)OC([C@H](C[C@@H]1CCNC1=O)NC(=O)[C@H](CC1CCCCC1)NC(=O)O[C@H](c1ccccc1)C(F)(F)c1cccc(Cl)c1)S(=O)(=O)O` (stereo partly drawn) [Compound A212], for which it took 4.15 µM to reach half-maximal inhibition (IC50).

For `CCCC[C@H](NC(=O)O[C@@H](c1ccccc1)C(F)(F)c1cccc(Cl)c1)C(=O)N[C@@H](C[C@@H]1CCNC1=O)C(OC(=O)CC)S(=O)(=O)O` (stereo partly drawn) [Compound A213], half-maximal inhibition (IC50) required 5.02 µM. With `CCCC[C@H](NC(=O)O[C@H](c1ccccc1)C(F)(F)c1cccc(Cl)c1)C(=O)N[C@@H](C[C@@H]1CCNC1=O)C(OC(=O)CC)S(=O)(=O)O` (stereo partly drawn) [Compound A214], half-maximal inhibition (IC50) required 1.86 µM.

`CCCC[C@H](NC(=O)O[C@@H](c1ccccc1)C(C)(C)c1cccc(F)c1)C(=O)N[C@@H](C[C@@H]1CCNC1=O)C(=O)C(=O)NCC` [Compound A215]: the IC50 was 1.01 µM. `CCCC[C@H](NC(=O)O[C@H](c1ccccc1)C(C)(C)c1cccc(F)c1)C(=O)N[C@@H](C[C@@H]1CCNC1=O)C(=O)C(=O)NCC` [Compound A216] had an IC50 of 0.006 µM. For `CCCC[C@H](NC(=O)O[C@@H](c1cccc(F)c1)C(F)(F)c1cccc(F)c1)C(=O)N[C@H](C=O)C[C@@H]1CCNC1=O` [Compound A217] the value was 0.01 µM; for `CCCCC[C@H](NC(=O)O[C@H](c1ccccc1)C(F)(F)c1cccc(Cl)c1)C(=O)N[C@H](C=O)C[C@@H]1CCNC1=O` [Compound A218], 0.001 µM. `O=C[C@H](C[C@@H]1CCNC1=O)NC(=O)[C@H](CCCF)NC(=O)OC(c1ccccc1)C(F)(F)c1cccc(Cl)c1` (stereo partly drawn) [Compound A219] gave an IC50 of 0.16 µM. In turn, `CCNC(=O)C(=O)[C@H](C[C@@H]1CCNC1=O)NC(=O)[C@H](CC1CCCC1)NC(=O)O[C@@H](c1ccccc1)C(F)(F)c1cccc(Cl)c1` [Compound A220, (S)-2-(3-chlorophenyl)-2,2-difluoro-1-phenylethyl ((S)-3-cyclopentyl-1-(((S)-4-(ethylamino)-3,4-dioxo-1-((S)-2-oxopyrrolidin-3-yl)butan-2-yl)amino)-1-oxopropan-2-yl)carbamate] registered an IC50 of 0.183 µM. As for `CC(C)C[C@H](NC(=O)OC(C(C)C)C(F)(F)c1cccc(-c2ccccc2)c1)C(=O)N[C@H](C=O)C[C@@H]1CCNC1=O` (stereo partly drawn) [Compound A222, 1-([1,1′-Biphenyl]-3-yl)-1,1-difluoro-3-methylbutan-2-yl ((S)-4-methyl-1-oxo-1-(((S)-1-oxo-3-((S)-2-oxopyrrolidin-3-yl)propan-2-yl)amino)pentan-2-yl)carbamate], the IC50 was determined as 0.003 µM.

Compound `CC(C)C[C@H](NC(=O)O[C@@H](c1ccccc1)C(F)(F)c1cccc(F)c1)C(=O)N[C@H](C=O)C[C@@H]1CCNC1=O` [Compound A223, (S)-2,2-difluoro-2-(3-fluorophenyl)-1-phenylethyl ((S)-4-methyl-1-oxo-1-(((S)-1-oxo-3-((S)-2-oxopyrrolidin-3-yl)propan-2-yl)amino)pentan-2-yl)carbamate] came in with an IC50 of 0.007 µM. As for `CCCC[C@H](NC(=O)OC(c1ccccc1)C(F)(F)c1cccc(Cl)c1)C(=O)N[C@@H](C[C@@H]1CCNC1=O)C(=O)C(N)=O` (stereo partly drawn) [Compound A224, 2-(3-chlorophenyl)-2,2-difluoro-1-phenylethyl ((S)-1-(((S)-4-amino-3,4-dioxo-1-((S)-2-oxopyrolidin-3-yl)butan-2-yl)amino)-1-oxohexan-2-yl) carbamate], the IC50 was found to be 0.0001 µM.
